According to patent publication US20260284240A1, “RADIOLABELED COMPOUND FOR USE IN A METHOD OF TREATING CARBONIC ANHYDRASE IX POSITIVE DISEASES” (DEBIOPHARM INTERNATIONAL S.A., priority 2023, published 2026):
Read-outs that look alike come from different tables or passages of the source. Starred links: 1 amine or outer side, 2 acyl side, 3 side chain; linkers in the order of their positions; H or OH if unused. Positions of bridges follow the written chain, without caps; N, C: chain ends. Non-standard residues stand in square brackets, D forms with d. Residues, ends and D or L forms follow the SMILES beside them. *: point of attachment. Phe(3-NHCO(CH2)3SO2NH2) = N[C@@H](Cc1cccc(NC(=O)CCCS(N)(=O)=O)c1)C(=O)O; DOTA = O=C(O)CN1CCN(CC(=O)O)CCN(CC(=O)*)CCN(CC(=O)O)CC1; mXylylene = c1cc(C[*:1])cc(C[*:2])c1; X1 = O=C(CN1CCN([*:1])CC1)[*:2]

Key:
[1] = Pharmacokinetics after single i.v. dose in healthy male beagle dogs; assay type: in vivo; conditions: dog; for concentration at 24 h / dose excreted at 24 h: iv; for concentration at 24 h: 24 h urine, read-out: Mean amount of unchanged compound excreted in urine; for dose excreted at 24 h: urine, read-out: Dose excreted unchanged in urine
Description: The pharmacokinetics of DPI-4452 after a single intravenous (i.v.) dose was investigated in healthy dogs. […] Plasma and urine samples collected after dosing were analyzed using a LC-HRMS (liquid chromatography coupled with high-resolution mass spectrometry) assay method. Concentration values were used for pharmacokinetic calculations.
DPI 4452 was formulated in 0.1 M HEPES pH 7.0 at the final concentrations of 0.05 and 0.4 mg/mL for dosing at 0.1 and 0.8 mg/kg, respectively. Male beagle dogs (3 animals per dose level; overall 8.9 to 12.4 kg body weight) were administered intravenously (bolus) in a 2 mL/kg dosing volume. Blood samples were collected in K2EDTA tubes at 5 min, 15 min, 30 min, 1 h, 2 h, 4 h, 6 h, 24 h, and urine was collected over 24 hours post dose. The blood samples were kept on wet ice until plasma separation by centrifugation within 60 min after sampling. The plasma samples were transferred into plastic tubes, frozen and stored at −80° C. until analysis.
Plasma and urine samples were analyzed by LC-HRMS after solid phase extraction, using DPI-4501 as internal standard. Chromatographic separation was run on a Waters Acquity HSS T3 C18 2.1×50 mm, 1.8 μm column. Detection was achieved on a Sciex AP16600 TOF mass spectrometer. The lower limit of quantification was 2.00 ng/mL in urine and plasma.
The NCA pharmacokinetic analysis of plasma concentration data was conducted using Phoenix WinNonlin 6.3 software. Nominal doses were used for all animals. The terminal phase half-life (T1/2) was calculated by least-squares regression analysis of the terminal linear part of the log concentration-time curve. The area under the plasma concentration-time curve (AUC) was determined with the linear trapezoidal rule for increasing values and log trapezoidal rule for decreasing values up to the last measurable concentration.

[2] = Dose range finding toxicity study by i.v. bolus in male beagle dogs; assay type: in vivo, dog; conditions: i.v. bolus up to 800 μg/kg
Description: The following parameters and endpoints were evaluated: mortality, clinical observations, body weights, food consumption, local reactions, clinical pathology parameters (hematology, coagulation, and clinical chemistry), organ weights, and macroscopic examinations. Both animals were sampled for toxicokinetics (TK) on each dosing occasion (i.e., on day 1, day 5, day 9 and day 13) at: pre-dose, 15 min, 30 min, 1 h, 6 h and 24 h. Blood samples were collected in K2EDTA tubes. Plasma was prepared by centrifugation (2500 g for 10 minutes, +4° C.) within 1 hour after collection, and then frozen within 1 hour after centrifugation and stored at −80° C. […] Chromatographic separation was achieved using a Waters Acquity UPLC system with a Waters Acquity HSS T3 C18 2.1×50 mm, 1.8 μm column. Chromatography was conducted at 50° C. at a flow rate of 0.7 mL/min using a mobile phase consisting of A: acetonitrile, and B: 1% formic acid in water, according to the following linear gradient: 0 to 0.1 min: 90% B; 0.1 to 4.1 min: from 90% B to 74% B; 4.1 to 4.2 min: from 74% B to 5% B; 4.2 to 4.6 min: 5% B; 4.6 to 4.7 min: from 5% B to 90% B; 4.7-5.1 min; 90% B. Detection was performed using a Sciex AP16600 TOF mass spectrometer. Toxicokinetic parameters were estimated from concentration-time data using Phoenix pharmacokinetic software (version 6.4, Certara L.P.). […]

[3] = Toxicokinetics in the extended single-dose toxicity study in dogs; assay type: in vivo, dog; conditions: for concentration at 5 min: plasma, iv, read-out: C5 min; for concentration at 5 min / AUClast / CL / Vss: mean n = 3; for t1/2: harmonic mean
Description: The following parameters and endpoints were evaluated: mortality, clinical observations, body weights, food consumption, body temperature, local reactions, ophthalmology, clinical pathology parameters (hematology, coagulation, clinical chemistry, and urinalysis), cardiovascular and respiratory safety pharmacology endpoints along with FOB evaluation, organ weights, and macroscopic and microscopic examinations, and TK parameters. The animals from subset A (3 males and 3 females per group) were sampled for toxicokinetics (TK) at: pre-dose, 5 min, 15 min, 30 min, 1 h, 2 h, 3 h and 6 h. Blood samples were collected in K2EDTA tubes. Plasma was prepared by centrifugation (2500 g for 10 minutes, +4° C.) within 1 hour after collection, and then frozen within 1 hour after centrifugation and stored at −80° C. […] Chromatographic separation was achieved using a Waters Acquity UPLC system with a Waters Acquity HSS T3 C18 2.1×50 mm, 1.8 μm column. Chromatography was conducted at 50° C. at a flow rate of 0.7 mL/min using a mobile phase consisting of A: 1% formic acid in acetonitrile, and B: 1% formic acid in water, according to the following linear gradient: 0 to 0.1 min: 90% B; 0.1 to 4.1 min: from 90% B to 74% B; 4.1 to 4.2 min: from 74% B to 5% B; 4.2 to 4.6 min: 5% B; 4.6 to 4.7 min: from 5% B to 90% B; 4.7-5.1 min; 90% B. Detection was performed using a Sciex AP16600 TOF mass spectrometer. Toxicokinetic parameters were estimated from concentration-time data using Phoenix pharmacokinetic software (version 6.4, Certara L.P.). A non-compartmental approach consistent with the bolus intravenous injection was used for parameter estimation.

[4] = molecular target: T1, human CAIX (Homo sapiens, UniProt Q16790); assay: Surface Plasmon Resonance (SPR) binding to captured human CAIX (Biacore T200); conditions: 25° C.
T1 construct: purchased Sino Biological 10107-H02H
Description: Surface Plasmon Resonance (SPR) studies were performed on a Biacore™ T200 using a ligand capture approach. Basically, anti-human Fc antibodies were immobilized on the surface of a sensor chip and CAIX was captured on the functionalized surface via its Fc Tag. Then, each compound was injected at increasing concentrations on the captured CAIX in order to measure the in real-time interaction of the compound to its target (i.e., the captured CAIX). The in real-time monitoring of the association and dissociation of the interaction gives access to the interaction kinetics parameters (i.e., the association and dissociation rate constants and the resulting affinity constants). […]
• For each measurement, the raw surface plasmon resonance response (RU) was plotted against time (s) as a sensorgram using the Biacore™ T200 Control Software. • Raw data were corrected by double referencing with subtraction of the signal of both the reference flow-cell and the blank cycle. • The association and dissociation rate constants (ka and kd, respectively), as well as the dissociation constant KD and dissociation half-life t½ were determined from the corrected sensorgrams by fitting the data to a 1:1 Langmuir binding model with the Biacore™ T200 evaluation software.

[5] = female beagle dogs, single i.v. bolus 16 μg/kg
[6] = female beagle dogs, single i.v. bolus 80 μg/kg
[7] = female beagle dogs, single i.v. bolus 400 μg/kg
[8] = male beagle dogs, single i.v. bolus 16 μg/kg
[9] = male beagle dogs, single i.v. bolus 80 μg/kg
[10] = male beagle dogs, single i.v. bolus 400 μg/kg

Which “Time up to which plasma concentration was quantifiable” value ([1]; i.v. 0.1 mg/kg) does the source give for `CC(C)C[C@@H]1NC(=O)[C@H](Cc2cccc(NC(=O)CCCS(N)(=O)=O)c2)NC(=O)[C@H](CC(=O)O)NC(=O)[C@H]2CCCN2C(=O)[C@H](CCC(=O)O)NC(=O)[C@@H](NC(=O)[C@H](CCC(N)=O)NC(=O)CN2CCN(C(=O)CN3CCN(CC(=O)O)CCN(CC(=O)O)CCN(CC(=O)O)CC3)CC2)CSCc2cccc(c2)CSC[C@@H](C(N)=O)NC(=O)[C@H](CO)NC(=O)[C@H](Cc2c[nH]c3ccccc23)NC(=O)[C@H]([C@@H](C)O)NC1=O` [DPI-4452, DOTA-PPAc-Gln-[Cys(3MeBn)-Glu-pro-Asp-Af3(Cpsu)-Leu-Thr-Trp-Ser-Cys]-NH2] ({DOTA}-[X1]QCE[dP]D[Phe(3-NHCO(CH2)3SO2NH2)]LTWSC-NH2; linker 3-12 via mXylylene) here?
Its value is “up to 2 h”.

What about the “Time up to which plasma concentration was quantifiable” value ([1]; i.v. 0.8 mg/kg) of the same compound?
Its value is ≤ 4 h.

And the concentration at 24 h ([1]; i.v. 0.1 mg/kg)?
Its concentration at 24 h is 26.8 ng/mL.

And the concentration at 24 h ([1]; i.v. 0.8 mg/kg)?
The concentration at 24 h was 191 ng/mL.

And the dose excreted at 24 h ([1]; i.v. 0.1 mg/kg)?
Its dose excreted at 24 h is 0.29%.

And the dose excreted at 24 h ([1]; i.v. 0.8 mg/kg)?
Its dose excreted at 24 h is 0.14%.

What about the Tolerability [2] of the same compound?
Its Tolerability is “well tolerated systemically and locally”.

And the “Exposure difference between male and female dogs” value ([3]; all dose levels)?
The value was “No appreciable difference”.

And the “Mean AUCtlast at the NOAEL, females” value ([3]; dog, 400 μg/kg i.v.)?
Its value is 771 ng·h/mL.

And the “Mean AUCtlast at the NOAEL, males” value ([3]; dog, 400 μg/kg i.v.)?
Its value is 854 ng·h/mL.

What about the concentration at 5 min ([3]; dog, 0.08 mg/kg, female beagle dogs, single i.v. bolus 80 μg/kg) of the same compound?
Its concentration at 5 min is 346 ng/mL.

What about the concentration at 5 min ([3]; dog, 0.08 mg/kg, male beagle dogs, single i.v. bolus 80 μg/kg) of the same compound?
The concentration at 5 min was 332 ng/mL.

What about the concentration at 5 min ([3]; dog, 0.4 mg/kg, female beagle dogs, single i.v. bolus 400 μg/kg) of the same compound?
Its concentration at 5 min is 1760 ng/mL.

And the concentration at 5 min ([3]; dog, 0.4 mg/kg, male beagle dogs, single i.v. bolus 400 μg/kg)?
Its concentration at 5 min is 1840 ng/mL.

And the concentration at 5 min ([3]; dog, […], female beagle dogs, single i.v. bolus 16 μg/kg)?
The concentration at 5 min was 37.7 ng/mL.

And the concentration at 5 min ([3]; dog, […], male beagle dogs, single i.v. bolus 16 μg/kg)?
Its concentration at 5 min is 43.5 ng/mL.

And the t1/2 [3, 5]?
The t1/2 was 14.3 min.

What about the AUClast [3, 5] of the same compound?
Its AUClast is 12.4 ng·h/mL.

And the CL [3, 5]?
The CL was 21.2 mL/min/kg.

And the Vss [3, 5]?
The Vss was 0.30 L/kg.

What about the t1/2 [3, 6] of the same compound?
Its t1/2 is 23.2 min.

And the AUClast [3, 6]?
The AUClast was 144 ng·h/mL.

And the CL [3, 6]?
The CL was 9.27 mL/min/kg.

And the Vss [3, 6]?
The Vss was 0.21 L/kg.

And the t1/2 [3, 7]?
The t1/2 was 21.8 min.

And the CL [3, 7]?
The CL was 8.63 mL/min/kg.

And the Vss [3, 7]?
The Vss was 0.19 L/kg.

What about the t1/2 [3, 8] of the same compound?
The t1/2 was 15.5 min.

What about the AUClast [3, 8] of the same compound?
Its AUClast is 14.0 ng·h/mL.

And the CL [3, 8]?
Its CL is 18.3 mL/min/kg.

What about the Vss [3, 8] of the same compound?
The Vss was 0.26 L/kg.

And the t1/2 [3, 9]?
The t1/2 was 21.7 min.

What about the AUClast [3, 9] of the same compound?
The AUClast was 132 ng·h/mL.

And the CL [3, 9]?
Its CL is 10.1 mL/min/kg.

And the Vss [3, 9]?
Its Vss is 0.21 L/kg.

And the t1/2 [3, 10]?
Its t1/2 is 23.7 min.

And the CL [3, 10]?
The CL was 7.88 mL/min/kg.

And the Vss [3, 10]?
The Vss was 0.19 L/kg.

And the “t1/2 (dissociation half-life)” value [4]?
Its value is 99 min.
